Measurements as given in patent US7144862B2, “Orally administered peptides to ameliorate atherosclerosis” (The Regents of the University of California, priority 2000, dated 2006).

Experiments:
[1] = Right angle light scattering, dissolution of EPC MLVs; assay type: physicochemical; settings: 105 μM EPC, equimolar peptide, 25° C., 30 min
Experimental: EPC MLVs were prepared by evaporating a solution of EPC (Avanti Polar, AL) under nitrogen and hydrating the lipid film with phosphate-buffered saline (pH 7.4). […] Turbidity clarification was monitored for 30 min.

[2] = molecular target: T1, lecithin:cholesterol acyl transferase (LCAT) (Homo sapiens, UniProt P04180); assay: Assay of LCAT activity; assay type: biochemical; settings: 20 μg/ml peptide, egg PC-cholesterol vesicles
T1 construct: LCAT was isolated from fresh normolipidemic plasma by the method of Albers et al; from tissue; host or cells: fresh normolipidemic plasma
T1 sequence (P04180 25-440): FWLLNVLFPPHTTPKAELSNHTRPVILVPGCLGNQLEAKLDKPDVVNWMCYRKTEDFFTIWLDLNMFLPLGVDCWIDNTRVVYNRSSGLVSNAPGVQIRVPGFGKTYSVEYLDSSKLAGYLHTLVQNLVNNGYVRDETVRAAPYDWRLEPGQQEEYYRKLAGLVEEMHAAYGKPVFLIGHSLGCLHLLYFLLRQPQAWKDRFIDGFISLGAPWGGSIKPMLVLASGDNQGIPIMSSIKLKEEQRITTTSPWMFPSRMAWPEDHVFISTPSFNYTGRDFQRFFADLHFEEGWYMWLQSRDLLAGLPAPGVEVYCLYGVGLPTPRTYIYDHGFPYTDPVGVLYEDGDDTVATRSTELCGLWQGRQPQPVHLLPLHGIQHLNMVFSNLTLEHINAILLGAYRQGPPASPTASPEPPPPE
Experimental: LCAT was isolated from fresh normolipidemic plasma by the method of Albers et al. (1986) Methods Enzymol. 129: 763–783, with some modifications. The density of the plasma was adjusted to 1.21 g/ml and it was centrifuged at 175,000 g for 24 h. The LCAT containing fraction was subjected to Affi-Gel Blue chromatography followed by DE-52 chromatography. LCAT was eluted from the DE-52 column using a 75 to 200 mM NaCl gradient in Tris buffer (10 mM, pH 7.6).
The substrate was prepared by sonicating egg PC/cholesterol (90:20 mol/mol) containing trace amounts of 7α-^3H cholesterol in a Branson 250 sonifier for 12 mins to obtain small unilamellar vesicles. The substrate (50 μl) was incubated with 5 μg of peptide or human apo A-I and 50 μl of BSA (40 μg/ml) for 1 h at 37° C. The total volume was brought up to 150 μl. After incubating for 1 h, 100 μl of LCAT was added and incubated for 1 h at 37° C. and the reaction was quenched by spotting 10 μl on a silica strip. Cholesterol and cholesteryl ester were separated by thin layer chromatography of the silica strip in hexane:chloroform (2:1 v/v) mixture. […] The positions of the standards were used to cut the strip into two and the two parts were counted in scintillation fluid in a Packard Tri Carb 4530. […] The activation of LCAT by the peptides is expressed as a percentage of the total activation by apo A-I .

[3] = Surface pressure measurements: monolayer exclusion pressure; assay type: physicochemical; settings: EPC monolayer; reproducibility ± 1 dyn/cm
Experimental: An insoluble monolayer of egg phosphatidylcholine (EPC) was spread at the air-water interface in a Teflon dish at room temperature to give an initial surface pressure (πi) in the range of 5–45 dyn/cm. A solution of peptides in PBS containing 1.5M Gdn. HCl was carefully injected in to the subphase to give a final concentration of 50 μg/dL. The Gdn. HCl was diluted in the subphase to a final concentration of ≦1 mM to allow the peptides to renature. The subphase was stirred continuously and the increase in EPC monolayer surface pressure (Δπ) was recorded until a steady state value was obtained. The value of the initial surface pressure (πi) at which the peptides no longer penetrate the EYPC monolayer i.e. the exclusion pressure (πe), was calculated by extrapolating the πi vs Δπ linear regression fit to Δπ=0 dyn/cm.

[4] = Circular dichroism, percent helicity; assay type: physicochemical
Experimental: Briefly, spectra were obtained using a cell with a 0.1 cm path length and measurements were taken every nm from 260 nm to 190 nm at 25° C. All the CD spectra were signal averaged by adding four scans, base line corrected and smoothed. Peptide solutions in PBS, pH 7.4, were used at a concentration of 11 μM. Peptide-DMPC complexes (1:20 mol:mol) were used to determine the effect of lipid binding on the helicity of these peptides. These complexes were prepared by adding the appropriate volume of peptide solution to DMPC multilamellar vesicles. DMPC multilamellar vesicles were prepared as follows: A known amount of lipid was dissolved in ethanol and the solvent was removed by evaporating slowly under a thin stream of nitrogen. Residual solvent was removed by storing the lipid film under vacuum overnight. An appropriate volume of PBS, pH 7.4 was added to the thin lipid film to give the required final concentration of DMPC.

[5] = Plasma cholesterol lipoprotein profiles (CLiP); assay type: in vivo, mouse; settings: 16 weeks atherogenic diet, daily i.p.
Experimental: Plasma cholesterol lipoprotein profiles were measured using our recently-developed CLiP method (Garber et al. (2000) J. Lipid Res. 41:1020–1026). Briefly, 5 to 10 μl of plasma were analyzed using a single Superose 6 (Pharmacia, Piscataway N.J.) column. Immediately following the column, cholesterol reagent was introduced through a mixing tee, and the eluent:reagent mixture entered a post-column reaction coil. Cholesterol content of the eluent mixture was spectrophotometrically detected at 500 nm, and data points were collected into a computer. The resulting profiles were decomposed into component peaks and analyzed for relative area using PeakFit (SPSS Science, Chicago, Ill.); absolute cholesterol values for total cholesterol and each component peak were determined by comparison with a control sample of known values. In some cases fractions were collected to determine distribution of radioactivity. The CLiP method allowed analysis of individual mouse samples, avoiding the use of pooled samples.

Ac-DWLKAFYDKVFEKFKEFF-NH2 [Peptide 5F, Ac-D-W-L-K-A-F-Y-D-K-V-F-E-K-F-K-E-F-F-NH2]
clarification of EPC MLVs [1]: clarified the EPC MLVs to a similar extents
LCAT activation relative to apo A-I (100%) [2]: 80 % of apo A-I
Monolayer Exclusion Pressure(πc) [3]: 45 dyn/cm
Percent Helicity PBS ([4]; 11 μM peptide in PBS): 55%
Percent Helicity DMPC ([4]; 11 μM peptide, Peptide: DMPC 1:20 (mol/mol)): 76%
HDL as percent of total cholesterol [5]: (9.24 ± 1.18%*)
IDL + LDL as percent of total cholesterol [5]: (42.80 ± 2.51%)
VLDL as percent of total cholesterol [5]: (47.96 ± 3.26%)
HDL cholesterol ([5]; mean ± SEM): 17.92 ± 2.91 mg/dL
IDL + LDL cholesterol ([5]; mean ± SEM): 83.37 ± 8.15 mg/dL
TC (total cholesterol) ([5]; mean ± SEM): 201.63 ± 25.21 mg/dL
VLDL cholesterol ([5]; mean ± SEM): 100.34 ± 15.72 mg/dL
